Target: Epidermal growth factor receptor (Homo sapiens, UniProt P00533)
Settings: at 10 µM
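Further: EGFR tyrosine kinase activity on a poly(Glu,Tyr) substrate, read out by Kinase-Glo Plus luminescence after a 40 min reaction.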

Chain of Epidermal growth factor receptor (P00533 whole entry): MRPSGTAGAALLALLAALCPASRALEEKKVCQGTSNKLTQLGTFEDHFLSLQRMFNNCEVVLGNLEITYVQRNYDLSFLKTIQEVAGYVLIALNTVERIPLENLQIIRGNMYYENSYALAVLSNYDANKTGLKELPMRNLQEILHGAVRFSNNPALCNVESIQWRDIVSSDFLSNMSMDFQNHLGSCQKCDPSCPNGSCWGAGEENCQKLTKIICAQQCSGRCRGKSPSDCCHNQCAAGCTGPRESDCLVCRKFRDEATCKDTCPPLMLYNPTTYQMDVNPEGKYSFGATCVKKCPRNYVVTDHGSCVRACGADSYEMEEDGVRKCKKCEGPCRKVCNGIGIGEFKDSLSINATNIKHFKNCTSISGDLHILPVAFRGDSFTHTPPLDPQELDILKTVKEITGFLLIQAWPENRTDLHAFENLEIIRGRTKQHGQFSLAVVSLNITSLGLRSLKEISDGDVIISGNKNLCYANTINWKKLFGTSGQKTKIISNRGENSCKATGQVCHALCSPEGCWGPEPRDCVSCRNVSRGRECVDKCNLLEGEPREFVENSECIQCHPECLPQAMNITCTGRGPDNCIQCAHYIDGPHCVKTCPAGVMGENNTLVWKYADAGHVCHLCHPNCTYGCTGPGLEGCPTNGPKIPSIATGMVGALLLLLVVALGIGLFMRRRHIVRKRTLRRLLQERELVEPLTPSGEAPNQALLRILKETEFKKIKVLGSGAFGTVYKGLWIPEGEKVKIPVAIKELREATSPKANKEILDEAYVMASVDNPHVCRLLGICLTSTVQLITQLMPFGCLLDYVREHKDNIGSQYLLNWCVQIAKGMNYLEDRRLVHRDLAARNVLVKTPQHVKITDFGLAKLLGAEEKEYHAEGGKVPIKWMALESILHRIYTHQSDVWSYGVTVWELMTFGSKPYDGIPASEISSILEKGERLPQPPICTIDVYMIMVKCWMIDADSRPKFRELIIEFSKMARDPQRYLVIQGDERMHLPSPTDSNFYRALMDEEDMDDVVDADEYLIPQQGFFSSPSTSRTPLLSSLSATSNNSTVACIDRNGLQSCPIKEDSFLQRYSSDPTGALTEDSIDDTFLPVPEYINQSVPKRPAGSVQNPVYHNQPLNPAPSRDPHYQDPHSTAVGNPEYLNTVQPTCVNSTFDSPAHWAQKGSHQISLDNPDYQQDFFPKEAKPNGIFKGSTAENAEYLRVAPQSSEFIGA
Description: Inhibition of EGFR tyrosine kinase (unknown origin) using poly (Glu,Tyr) as substrate at 10 uM after 40 mins by Kinase-Glo Plus luminescence kinase assay

SMILES | inhibition
CCOC(=O)C(=CNc1ccc2ncnc(Nc3ccc(Cl)cc3)c2c1)C(=O)OCC | 82%
CCOC(=O)C(=CNc1ccc2ncnc(Nc3ccc(Cl)cc3Cl)c2c1)C(=O)OCC | 90%
CCOC(=O)/C(C#N)=C\Nc1ccc2ncnc(Nc3ccccc3CC)c2c1 | 84%
CCOC(=O)C(=CNc1ccc2ncnc(Nc3ccc(O)cc3)c2c1)C(=O)OCC | 100%
Nc1ccc2ncnc(Nc3ccccc3Cl)c2c1 | 90%
CCOC(=O)C(=CNc1ccc2ncnc(Nc3ccccc3Cl)c2c1)C(=O)OCC | 100%
CCOC(=O)/C(C#N)=C\Nc1ccc2ncnc(Nc3cccc(O)c3)c2c1 | 100%

Next, values leading:

inhibition | SMILES
100% | CCOC(=O)C(=CNc1ccc2ncnc(Nc3cccc(Br)c3)c2c1)C(=O)OCC
100% | CCOC(=O)/C(C#N)=C\Nc1ccc2ncnc(Nc3cccc(Br)c3)c2c1
100% | C#Cc1cccc(Nc2ncnc3ccc(NC=C(C(=O)OCC)C(=O)OCC)cc23)c1
100% | CCOC(=O)/C(C#N)=C\Nc1ccc2ncnc(Nc3ccc(O)cc3)c2c1
